Series [1] in a line: Surface tension in water (Test Procedure I, Kruss K12 Tensiometer). As to conditions: for Surface Tension (dynes/cm) at Various Surfactant Concentrations: 20 ppm: 20 ppm in water; for Surface Tension (dynes/cm) at Various Surfactant Concentrations: 200 ppm: 200 ppm in water; for Surface Tension (dynes/cm) at Various Surfactant Concentrations: 2000 ppm: 2000 ppm in water; for Surface Tension (dynes/cm) at Various Surfactant Concentrations: 23 ppm: 23 ppm in water; for Surface Tension (dynes/cm) at Various Surfactant Concentrations: 83 ppm: 83 ppm in water; for Surface Tension (dynes/cm) at Various Surfactant Concentrations: 164 ppm: 164 ppm in water; for Surface Tension (dynes/cm) at Various Surfactant Concentrations: 273 ppm: 273 ppm in water; for Surface Tension (dynes/cm) at Various Surfactant Concentrations: 421 ppm: 421 ppm in water; for Surface Tension (dynes/cm) at Various Surfactant Concentrations: 617 ppm: 617 ppm in water; for Surface Tension (dynes/cm) at Various Surfactant Concentrations: 875 ppm: 875 ppm in water; for Surface Tension (dynes/cm) at Various Surfactant Concentrations: 1032 ppm: 1032 ppm in water. The format is physicochemical.
Protocol: Test Procedure I—Surface Tension Determination
All surface tensions were determined using a Kruss K12 Tensiometer. […] The program was run using a Wilhelmy platinum plate (PL12) and glass sample vessel (GL7).

A short description of series [2]: Dynamic surface tension of water (Kruss Bubble Pressure Tensiometer BP2). It counts as physicochemical. The following applies: 0.5 weight % in water; for Dynamic Surface Tension (mN/m) at Indicated Bubble Frequency (Hz): 0.01: 0.01 Hz; for Dynamic Surface Tension (mN/m) at Indicated Bubble Frequency (Hz): 0.5: 0.5 Hz; for Dynamic Surface Tension (mN/m) at Indicated Bubble Frequency (Hz): 1.0: 1.0 Hz; for Dynamic Surface Tension (mN/m) at Indicated Bubble Frequency (Hz): 5.0: 5.0 Hz. As to the method: The dynamic surface tension of water containing 0.5 weight % FC-171 (C8F17SO2N(Et)(CH2CH2O)7.5CH3, for which the surface tension was measured in Comparative Example C2, was measured with a Kruss Bubble Pressure Tensiometer, Model BP2 (Kruss USA, Charlotte, N.C.). The results are shown in Table 11.

Four compounds from patent publication US7662896B2, “Fluorochemical sulfonamide surfactants” (3M Innovative Properties Company, priority 1999, dated 2010) can be followed below.

Take `CN(CC(=O)[O-])S(=O)(=O)C(F)(F)C(F)(F)C(F)(F)C(F)(F)F.[K+]` [C4F9SO2N(Et)CH2CO2K, C4F9SO2N(CH3)CH2CO2K]: in series [1], the “Surface Tension (dynes/cm) at Various Surfactant Concentrations: 20 ppm” value was determined as 68.5 dynes/cm, the “Surface Tension (dynes/cm) at Various Surfactant Concentrations: 200 ppm” value was determined as 57.4 dynes/cm and the “Surface Tension (dynes/cm) at Various Surfactant Concentrations: 2000 ppm” value worked out at 44.4 dynes/cm.
The like results for `CN(CC(=O)[O-])S(=O)(=O)C(F)(F)C(F)(F)C(F)(F)C(F)(F)C(F)(F)C(F)(F)F.[K+]` [C6F13SO2N(Et)CH2CO2K, C6F13SO2N(CH3)CH2CO2K] were, in that order, 48.2 dynes/cm, 30.8 dynes/cm and 15.5 dynes/cm.
As for `CCN(CCOCCOCCOCCOCCOCCOCCOC)S(=O)(=O)C(F)(F)C(F)(F)C(F)(F)C(F)(F)C(F)(F)C(F)(F)C(F)(F)C(F)(F)F` [FC-171, C8F17SO2N(C2H5)(CH2CH2O)7CH3], in series [1], the “Surface Tension (dynes/cm) at Various Surfactant Concentrations: 23 ppm” value is listed as 33.5 dynes/cm, the “Surface Tension (dynes/cm) at Various Surfactant Concentrations: 83 ppm” value is given as 21 dynes/cm, the “Surface Tension (dynes/cm) at Various Surfactant Concentrations: 164 ppm” value stood at 20.5 dynes/cm and the “Surface Tension (dynes/cm) at Various Surfactant Concentrations: 273 ppm” value was 19.5 dynes/cm. For the same compound, in series [1], the “Surface Tension (dynes/cm) at Various Surfactant Concentrations: 421 ppm” value worked out at 19 dynes/cm, the “Surface Tension (dynes/cm) at Various Surfactant Concentrations: 617 ppm” value is reported as 19 dynes/cm, the “Surface Tension (dynes/cm) at Various Surfactant Concentrations: 875 ppm” value is given as 19 dynes/cm and the “Surface Tension (dynes/cm) at Various Surfactant Concentrations: 1032 ppm” value was found to be 19 dynes/cm. Also, in series [2], the “Dynamic Surface Tension (mN/m) at Indicated Bubble Frequency (Hz): 0.01” value was determined as 51 mN/m, the “Dynamic Surface Tension (mN/m) at Indicated Bubble Frequency (Hz): 0.5” value is listed as 67 mN/m, the “Dynamic Surface Tension (mN/m) at Indicated Bubble Frequency (Hz): 1.0” value was found to be 70 mN/m and the “Dynamic Surface Tension (mN/m) at Indicated Bubble Frequency (Hz): 5.0” value came to 71 mN/m.
For “C4F9SO2N(CH3)(CH2CH2O)7.5CH3 [Example 1]”, in series [1], the “Surface Tension (dynes/cm) at Various Surfactant Concentrations: 23 ppm” value was 31 dynes/cm, the “Surface Tension (dynes/cm) at Various Surfactant Concentrations: 83 ppm” value came out at 24 dynes/cm, the “Surface Tension (dynes/cm) at Various Surfactant Concentrations: 164 ppm” value turned out to be 23 dynes/cm and the “Surface Tension (dynes/cm) at Various Surfactant Concentrations: 273 ppm” value is 22.5 dynes/cm. Further, in series [1], the “Surface Tension (dynes/cm) at Various Surfactant Concentrations: 421 ppm” value is 22 dynes/cm, the “Surface Tension (dynes/cm) at Various Surfactant Concentrations: 617 ppm” value was determined as 21.5 dynes/cm, the “Surface Tension (dynes/cm) at Various Surfactant Concentrations: 875 ppm” value came out at 20 dynes/cm and the “Surface Tension (dynes/cm) at Various Surfactant Concentrations: 1032 ppm” value stood at 20 dynes/cm. In series [1] (water, plotted against concentration in FIGS. 3-5, 7, 8), the “Surface tension in water compared with the C8F17 analog (in words)” value is reported as “very similar to that found when using the C8F17 segment”. Also, in series [2], the “Dynamic Surface Tension (mN/m) at Indicated Bubble Frequency (Hz): 0.01” value was 21 mN/m, the “Dynamic Surface Tension (mN/m) at Indicated Bubble Frequency (Hz): 0.5” value is given as 22 mN/m, the “Dynamic Surface Tension (mN/m) at Indicated Bubble Frequency (Hz): 1.0” value is 22.5 mN/m and the “Dynamic Surface Tension (mN/m) at Indicated Bubble Frequency (Hz): 5.0” value is reported as 23 mN/m.
